The record followed here is US20200383985A1, “Inhibitors of Protease Activated Receptor-2” (Endosome Therapeutics, Inc., priority 2017, published 2020).

Common to all, as to format: cell-based
One assay concerns the target T1, human (h) PAR2 (Homo sapiens, UniProt P55085).
T1 construct: expressed in transfected cells; host or cells: KNRK cells (KNRK-hPAR2)
T1 sequence (P55085 26-397): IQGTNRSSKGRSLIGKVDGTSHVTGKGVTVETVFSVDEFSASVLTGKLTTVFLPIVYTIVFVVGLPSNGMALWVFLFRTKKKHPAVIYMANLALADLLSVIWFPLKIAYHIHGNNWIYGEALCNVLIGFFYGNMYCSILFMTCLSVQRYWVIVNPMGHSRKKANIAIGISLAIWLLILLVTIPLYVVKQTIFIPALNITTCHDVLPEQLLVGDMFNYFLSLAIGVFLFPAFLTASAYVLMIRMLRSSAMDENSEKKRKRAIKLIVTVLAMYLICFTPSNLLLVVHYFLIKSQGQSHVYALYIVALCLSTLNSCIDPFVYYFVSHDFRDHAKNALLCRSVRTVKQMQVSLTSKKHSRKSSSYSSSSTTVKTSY
Kind of assay: IP1 accumulation assay in KNRK-hPAR2 cells. As to conditions: for inhibition at 30 µM: 100 nM 2F, 30 μM of antagonist, read-out: KNRK-PAR2 100 nM 2F: ND (inhibition of 2F at 30 μM of antagonist). On the procedure: (§1) KNRK-hPAR2, KNRK or HT-29 cells were seeded at a density of 50×10^3 cells/well in a clear poly-d-lysine coated 96 well tissue culture plate. Following 24 h incubation at 37° C. and 5% CO2, media was removed and replaced with 80 μl IP1 stimulation buffer (10 mM HEPES, 1 mM CaCl2, 0.5 mM MgCl2, 4.2 mM KCl, 146 mM NaCl, 5.5 mM glucose, 50 mM LiCl). Following stimulation buffer addition, the wells received 10 μl of 10× antagonists or DMSO vehicle. All plates were further incubated at 37° C., 5% CO2 for 30 min. 10 μl of 2F or ATP was added to the plates and further incubated for 40 min. Following incubation, stimulation buffer was quickly removed by aspiration and replaced with 25 μl lysis buffer (IP-One HTRF® assay kit, Cisbio). Following incubation of the lysates at 37° C., 5% CO2 for 10′, 10 μl lysate was transferred to a 384-well OptiPlate (PerkinElmer) and detected using the IP-One HTRF® assay kit (Cisbio).
(§2) Compounds of the invention (added at 10×concentrations in a 10 μL volume) were incubated for 30 min prior to the addition of 10 μM ATP or 100 nM or 300 nM PAR2 agonist (2F; EC80, added at 10×concentrations in a 10 μL volume) and then further incubated for 40 min. After lysis, the inositol phosphate 1 was quantified with IP-One HTRF® assay kit, Cisbio. The data was analysed with Prism, GraphPad to calculate the IC50 values, shown below in Table 1.
(§3) Inhibition of PAR2 signaling with known PAR2 inhibitor I-343 (FIG. 14A) was investigated in HT-29 cells and HEK293 cells, which express endogenous PAR2, and in KNRK cells expressing human (h) PAR2. Accumulation of inositol phosphate-1 (IP1) was measured in response to the PAR2-selective agonist 2-Furoyl-LIGRLO-NH2 (2F), an analogue of the trypsin-exposed tethered ligand, or trypsin.
(§4) KNRK-hPAR2, KNRK, HEK293, or HT-29 cells were seeded at a density of 50×10^3 cells/well onto clear 96-well plates (PerkinElmer). After 24 h of culture, medium was replaced with IP1 stimulation buffer (10 mM HEPES, 1 mM CaCl2, 0.5 mM MgCl2, 4.2 mM KCl, 146 mM NaCl, 5.5 mM glucose, 50 mM LiCl; 37° C., 5% CO2.). Cells were pre-incubated with the antagonist or vehicle for 30 min prior to the addition of agonist. Cells were then further incubated for 40 min. Stimulation buffer was […]

Another assay has as its target T2, PAR2 (Homo sapiens, UniProt P55085).
T2 construct: HT-29 cells and HEK293 cells, which express endogenous PAR2; endogenous in cells; host or cells: HT-29
T2 sequence (P55085 26-397): T1 sequence (P55085 26-397)
Kind of assay: IP1 accumulation assay in HT-29 cells (endogenous PAR2). As to conditions: 2F (300 nM)-induced IP1, HT-29 cells. On the procedure:
as §1, §2, §3, §4

The test system of a further assay is mouse DRG neurons. Kind of assay: Patch clamp rheobase of DRG neurons: protease-induced hyperexcitability of nociceptors. (The patch-clamp technique gives a direct electrical read-out from membranes.)
The mark [1] stands for this setting: read-out: HT-29 300 nM 2F (IC50).
Setting [2] is: read-out: HT-29 300 nM 2F pIC50 ± SEM (converted).

Where two headings read alike, the source gives them in different places.

Take `CC(C)CCC[C@@H](C)[C@H]1CC[C@H]2[C@@H]3CC[C@@H]4C[C@@H](OC(=O)C[C@H](NC(=O)CCOCCOCCOCCOCCOCCOCCNC(=O)[C@@H](O)[C@H](O)[C@H](O)[C@@H](O)C(=O)NC5CCC(C(=O)N6CCN(C(=O)c7cn8nc(-c9ccc(F)cc9)cc(C(C)(C)C)c8n7)C(C)(C)C6)CC5)C(N)=O)CC[C@]4(C)[C@H]3CC[C@]12C` (stereo partly drawn) [Compound 16, (3S,5R,8R,9S,10S,13R,14S,17R)-10,13-dimethyl-17-((R)-6-methylheptan-2-yl)hexadecahydro-1H-cyclopenta[a]phenanthren-3-yl (3S,28S,29R,30S,31R)-32-((4-(4-(8-(tert-butyl)-6-(4-fluorophenyl)imidazo[1,2-b]pyridazine-2-carbonyl)-3,3-dimethylpiperazine-1-carbonyl)cyclohexyl)amino)-3-carbamoyl-28,29,30,31-tetrahydroxy-5,27,32-trioxo-8,11,14,17,20,23-hexaoxa-4,26-diazadotriacontanoate]: at human (h) PAR2, the inhibition at 30 µM was below 50%. Besides, at PAR2 (setting [1]), the IC50 is 2070 nM.

Turning to `CC(C)(C)c1cc(-c2ccc(F)cc2)nn2cc(C(=O)N3CCN(C(=O)c4cn(CC(=O)O)nn4)CC3(C)C)nc12` [Compound 2, 2-(4-(4-(8-(tert-butyl)-6-(4-fluorophenyl)imidazo[1,2-b]pyridazine-2-carbonyl)-3,3-dimethylpiperazine-1-carbonyl)-1H-1,2,3-triazol-1-yl)acetic acid], the inhibition at 30 µM on human (h) PAR2 is below 50%. In addition, the IC50 is 140 nM at PAR2 (setting [1]) and 138 nM at PAR2 (setting [2]).

For the compound `CC(C)(C)c1cc(-c2ccc(F)cc2)nn2cc(C(=O)N3CCN(C(=O)c4cn(CC(=O)NCCOCCOCCO)nn4)CC3(C)C)nc12` [Compound 5, 2-(4-(4-(8-(tert-butyl)-6-(4-fluorophenyl)imidazo[1,2-b]pyridazine-2-carbonyl)-3,3-dimethylpiperazine-1-carbonyl)-1H-1,2,3-triazol-1-yl)-N-(2-(2-(2-hydroxyethoxy)ethoxy)ethyl)acetamide], the inhibition at 30 µM on human (h) PAR2 is below 50%. Also, the IC50 at PAR2 (setting [2]) is 180 nM.

On to `CC(C)CCC[C@@H](C)[C@H]1CCC2C3CCC4C[C@@H](OC(=O)C[C@H](NC(=O)CCOCCOCCOCCOCCNC(=O)Cn5cc(C(=O)N6CCN(C(=O)c7cn8nc(-c9ccc(F)cc9)cc(C(C)(C)C)c8n7)C(C)(C)C6)nn5)C(N)=O)CC[C@]4(C)C3CC[C@@]21C` (stereo partly drawn) [Compound 11, (3S,10S,13R,17R)-10,13-dimethyl-17-((R)-6-methylheptan-2-yl)hexadecahydro-1H-cyclopenta[a]phenanthren-3-yl (20S)-1-(4-(4-(8-(tert-butyl)-6-(4-fluorophenyl)imidazo[1,2-b]pyridazine-2-carbonyl)-3,3-dimethylpiperazine-1-carbonyl)-1H-1,2,3-triazol-1-yl)-20-carbamoyl-2,18-dioxo-6,9,12,15-tetraoxa-3,19-diazadocosan-22-oate], for which, on human (h) PAR2, the inhibition at 30 µM is below 50%. The IC50 at PAR2 (setting [1]) amounted to 970 nM.

Turning to `CC(C)CCC[C@@H](C)[C@H]1CC[C@H]2[C@@H]3CC=C4C[C@@H](OC(=O)NCCCC[C@@H](NC(=O)CCOCCOCCOCCOCCOCCOCCOCCOCCOCCOCCOCCOCCNC(=O)Cn5cc(C(=O)N6CCN(C(=O)c7cn8nc(-c9ccc(F)cc9)cc(C(C)(C)C)c8n7)C(C)(C)C6)nn5)C(=O)NN)CC[C@]4(C)[C@H]3CC[C@]12C` [Compound 17], the inhibition at 30 µM on human (h) PAR2 is below 50%. Further, the IC50 at PAR2 (setting [1]) was found to be 5630 nM.

For `CC(C)(C)c1cc(-c2ccc(F)cc2)nn2cc(C(=O)N3CCN(C(=O)[C@H]4CC[C@@H](NC(=O)[C@H](O)[C@@H](O)[C@@H](O)[C@H](O)C(N)=O)CC4)CC3(C)C)nc12` [Compound 7, (2R,3S,4R,5S)—N1-((1s,4S)-4-(4-(8-(tert-butyl)-6-(4-fluorophenyl)imidazo[1,2-b]pyridazine-2-carbonyl)-3,3-dimethylpiperazine-1-carbonyl)cyclohexyl)-2,3,4,5-tetrahydroxyhexanediamide], on human (h) PAR2, the inhibition at 30 µM is below 50%. Further, the figures for the IC50 on PAR2 (setting [1]) and on PAR2 (setting [2]) were 405 nM and 406 nM, respectively.

Take `CC(C)CCC[C@@H](C)[C@H]1CCC2C3CCC4C[C@@H](OC(=O)C[C@H](NC(=O)CCOCCOCCOCCOCCOCCOCCOCCOCCNC(=O)CCCNC(=O)Cn5cc(C(=O)N6CCN(C(=O)c7cn8nc(-c9ccc(F)cc9)cc(C(C)(C)C)c8n7)C(C)(C)C6)nn5)C(N)=O)CC[C@]4(C)C3CC[C@@]21C` (stereo partly drawn) [Compound 13, (3S,10S,13R,17R)-10,13-dimethyl-17-((R)-6-methylheptan-2-yl)hexadecahydro-1H-cyclopenta[a]phenanthren-3-yl (37S)-1-(4-(4-(8-(tert-butyl)-6-(4-fluorophenyl)imidazo[1,2-b]pyridazine-2-carbonyl)-3,3-dimethylpiperazine-1-carbonyl)-1H-1,2,3-triazol-1-yl)-37-carbamoyl-2,7,35-trioxo-11,14,17,20,23,26,29,32-octaoxa-3,8,36-triazanonatriacontan-39-oate]: on human (h) PAR2, the inhibition at 30 µM was below 50%. For the same compound, at PAR2 (setting [1]), the IC50 was found to be 736 nM.

With `CC(C)CCC[C@@H](C)[C@H]1CCC2C3CCC4C[C@@H](OC(=O)C[C@H](NC(=O)CCOCCOCCOCCOCCOCCOCCOCCOCCNC(=O)Cn5cc(C(=O)N6CCN(C(=O)c7cn8nc(-c9ccc(F)cc9)cc(C(C)(C)C)c8n7)C(C)(C)C6)nn5)C(N)=O)CC[C@]4(C)C3CC[C@@]21C` (stereo partly drawn) [Compound 12, (3S,10S,13R,17R)-10,13-dimethyl-17-((R)-6-methylheptan-2-yl)hexadecahydro-1H-cyclopenta[a]phenanthren-3-yl (32S)-1-(4-(4-(8-(tert-butyl)-6-(4-fluorophenyl)imidazo[1,2-b]pyridazine-2-carbonyl)-3,3-dimethylpiperazine-1-carbonyl)-1H-1,2,3-triazol-1-yl)-32-carbamoyl-2,30-dioxo-6,9,12,15,18,21,24,27-octaoxa-3,31-diazatetratriacontan-34-oate], the inhibition at 30 µM at human (h) PAR2 was below 50%. In addition, the IC50 on PAR2 (setting [1]) was determined as 827 nM.

On to `CC(C)(C)c1cc(-c2ccc(F)cc2)nn2cc(C(=O)N3CCN(C(=O)[C@H]4CC[C@@H](C(=O)NC[C@H](O)[C@@H](O)[C@H](O)[C@H](O)CO)CC4)CC3(C)C)nc12` [Compound 3, (1S,4R)-4-(4-(8-(tert-butyl)-6-(4-fluorophenyl)imidazo[1,2-b]pyridazine-2-carbonyl)-3,3-dimethylpiperazine-1-carbonyl)-N-((2S,3R,4R,5R)-2,3,4,5,6-pentahydroxyhexyl)cyclohexane-1-carboxamide], for which the IC50 on human (h) PAR2 (2F (100 nM)-induced IP1, KNRK-hPAR2 cells, read-out: KNRK-PAR2 100 nM 2F pIC50 ± SEM (converted)) is above 10000 nM; on PAR2 (setting [1]) it was 40 nM; at PAR2 (setting [2]), 40.7 nM.

Turning to `CC(C)c1ccc(Cn2ccc3c4c(N)nc(NC5CC5)nc4ccc32)cc1` [SCH79797], in the assay on mouse DRG neurons (1 μM), the “rheobase response to trypsin (PAR1 antagonist)” value is on record as “did not affect” and the “rheobase, antagonist alone” value was “no effect”. In addition, the “thrombin-induced immediate decrease in rheobase” value in the assay with mouse DRG neurons (thrombin 50 nM, 20 min, antagonist 1 μM, 10 min preincubation) was “prevented”.

Regarding `CN(C)CCCn1cc(C2=C(c3c[nH]c4ccccc34)C(=O)NC2=O)c2ccccc21` [GF109203X], in the assay with mouse DRG neurons, the initial trypsin-induced hyperexcitability entry is reported as “prevented” and the persistent trypsin-induced hyperexcitability entry is on record as “not”.

As to thrombin, in the assay with mouse DRG neurons (trypsin 50 nM 10 min, NE 390 nM 30 min, CS 500 nM 60 min, thrombin 50 nM 20 min, washed), the rheobase after protease result is on record as “immediate decrease in rheobase”.

For orientation: inhibition means the relative decrease from the control value, in per cent.
